Assay results from ChEMBL document CHEMBL4184315, “Discovery of Inhibitor of Wnt Production 2 (IWP-2) and Related Compounds As Selective ATP-Competitive Inhibitors of Casein Kinase 1 (CK1) δ/ε” (J Med Chem, 2018).
Active and inactive are the calls of the source. The calls are words filed in the database; no cut-off is given here.

How the values were obtained:
[1] = target: T1, Protein-serine O-palmitoleoyltransferase porcupine (Homo sapiens, UniProt Q9H237); test: Inhibition of porcupine in HEK293T cells transfected with Wnt3A-expressing vector assessed as suppression of Wnt/beta-catenin signaling after 22 hrs by Super-top flash reporter gene assay; assay type: cell-based
T1 sequence (Q9H237 whole entry): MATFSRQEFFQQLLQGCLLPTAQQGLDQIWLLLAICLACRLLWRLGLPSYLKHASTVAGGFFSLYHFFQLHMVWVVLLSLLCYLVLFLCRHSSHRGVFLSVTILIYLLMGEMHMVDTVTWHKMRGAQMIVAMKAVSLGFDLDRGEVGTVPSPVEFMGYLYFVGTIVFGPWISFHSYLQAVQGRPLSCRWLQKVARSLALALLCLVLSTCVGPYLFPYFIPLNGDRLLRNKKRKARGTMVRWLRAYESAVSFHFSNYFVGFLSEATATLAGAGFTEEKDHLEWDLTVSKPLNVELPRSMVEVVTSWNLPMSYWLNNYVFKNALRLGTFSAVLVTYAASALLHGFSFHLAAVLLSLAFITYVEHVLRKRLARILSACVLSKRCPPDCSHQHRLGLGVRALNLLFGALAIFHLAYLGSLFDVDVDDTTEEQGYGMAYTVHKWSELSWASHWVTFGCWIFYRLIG

[2] = target: T2, Protein-serine O-palmitoleoyltransferase porcupine (Homo sapiens) (UniProt Q9H237); test: Inhibition of porcupine in HEK293T cells transfected with Wnt3A-expressing vector assessed as suppression of Wnt/beta-catenin signaling at 5 uM after 22 hrs by Super-top flash reporter gene assay relative to control; assay type: cell-based
T2 sequence (whole entry): T1 sequence (Q9H237 whole entry)

Homo sapiens = organism: Homo sapiens; test: Inhibition of Wnt/beta-catenin signaling in HEK293T cells after 22 hrs in presence of Wnt3A-conditioned medium by Super-top flash reporter gene assay; assay type: cell-based
HEK-293T [3] = test: Upregulation of renilla luciferase expression in HEK293T cells transfected with Wnt3A-expressing vector up to 5 uM after 22 hrs by luminescence assay relative to control; assay type: cell-based; details: human
HEK-293T [4] = test: Upregulation of renilla luciferase expression in HEK293T cells up to 5 uM after 22 hrs in presence of Wnt3A-conditioned medium by luminescence assay relative to control; assay type: cell-based; details: human
[5] = target: T3, Casein kinase I isoform delta (Homo sapiens, UniProt P48730); test: Inhibition of CK1delta isolated from human PANC1 cells at 5 uM using GST-tagged p53 (1 to 64 residues) as substrate after 30 mins in presence of [gamma-32P]-ATP by Cherenkov counting method
[6] = target: Casein kinase I isoform delta (Rattus norvegicus) (UniProt Q06486); test: Inhibition of full-length rat GST-tagged CK1delta at 10 uM using alpha-casein as substrate after 30 mins in presence of [gamma-32P]-ATP by Cherenkov counting method
[7] = target: Casein kinase I isoform delta (Rattus norvegicus) (UniProt Q06486); test: Inhibition of rat recombinant CK1delta kinase domain at 10 uM using alpha-casein as substrate after 30 mins in presence of [gamma-32P]-ATP by Cherenkov counting method
[8] = target: T4, Casein kinase I isoform alpha (Bos taurus) (UniProt P67827); test: Inhibition of bovine GST-tagged CK1alpha at 10 uM using alpha-casein as substrate after 30 mins in presence of [gamma-32P]-ATP by Cherenkov counting method
T4 sequence (whole entry): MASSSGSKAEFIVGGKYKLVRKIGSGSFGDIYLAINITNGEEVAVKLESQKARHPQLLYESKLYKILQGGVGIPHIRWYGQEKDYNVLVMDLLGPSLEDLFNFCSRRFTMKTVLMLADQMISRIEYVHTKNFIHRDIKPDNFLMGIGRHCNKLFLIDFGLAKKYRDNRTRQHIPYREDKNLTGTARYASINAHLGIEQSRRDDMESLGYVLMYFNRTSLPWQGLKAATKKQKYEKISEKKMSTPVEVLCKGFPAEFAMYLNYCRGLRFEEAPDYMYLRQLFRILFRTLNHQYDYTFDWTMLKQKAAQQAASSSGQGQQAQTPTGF

[9] = target: Casein kinase I isoform gamma-3 (Homo sapiens) (UniProt Q9Y6M4); test: Inhibition of human GST-tagged CK1gamma3 at 10 uM using alpha-casein as substrate after 30 mins in presence of [gamma-32P]-ATP by Cherenkov counting method
[10] = target: T5, Casein kinase I isoform delta (Rattus norvegicus, UniProt Q06486); test: Inhibition of rat recombinant CK1delta kinase domain using alpha-casein as substrate after 30 mins in presence of [gamma-32P]-ATP by Cherenkov counting method
[11] = target: T5, Casein kinase I isoform delta; test: Inhibition of full-length rat GST-tagged CK1delta using alpha-casein as substrate after 30 mins in presence of [gamma-32P]-ATP by Cherenkov counting method
[12] = target: Casein kinase I isoform delta (Rattus norvegicus, UniProt Q06486, M82F); test: Inhibition of rat GST-tagged CK1delta M82F mutant at 10 uM using alpha-casein as substrate after 30 mins in presence of [gamma-32P]-ATP by Cherenkov counting method
[13] = target: Casein kinase I isoform epsilon (Homo sapiens, UniProt P49674); test: Inhibition of human recombinant CK1epsilon using alpha-casein as substrate after 30 mins in presence of [gamma-32P]-ATP by Cherenkov counting method
[14] = Selectivity ratio of IC50 for human CK1epsilon to IC50 for full-length rat GST-tagged CK1delta
[15] = Selectivity ratio of IC50 for human CK1epsilon to IC50 for rat recombinant CK1delta kinase domain
[16] = target: Casein kinase I isoform delta (Rattus norvegicus) (UniProt Q06486); test: Ratio of IC50 for full-length rat GST-tagged CK1delta to IC50 for rat recombinant CK1delta kinase domain
[17] = Antiproliferative activity against human A818-6 cells after 48 hrs by MTT assay; assay type: functional, cell-based
MIA PaCa-2 = test: Antiproliferative activity against human MIAPaCa2 cells after 48 hrs by MTT assay; assay type: functional, cell-based; details: MIA PaCa-2, 48 h
PANC-1 = test: Antiproliferative activity against human PANC1 cells after 48 hrs by MTT assay; assay type: functional, cell-based; details: PANC-1, 48 h
[18] = Antiproliferative activity against human Panc89 cells after 48 hrs by MTT assay; assay type: functional, cell-based
HT-29 = test: Antiproliferative activity against human HT-29 cells after 48 hrs by MTT assay; assay type: functional, cell-based; details: HT-29, 48 h
HEK293 = test: Antiproliferative activity against human HEK293 cells after 48 hrs by MTT assay; assay type: functional, cell-based; details: HEK293, 48 h
SW-620 = test: Antiproliferative activity against human SW620 cells after 48 hrs by MTT assay; assay type: functional, cell-based; details: SW-620, 48 h
CAPAN-1 = test: Antiproliferative activity against human Capan1 cells after 48 hrs by MTT assay; assay type: functional, cell-based; details: CAPAN-1, 48 h
[19] = target: Casein kinase I isoform delta (Rattus norvegicus) (UniProt Q06486); test: Inhibition of full-length rat GST-tagged CK1delta assessed as residual activity at 10 uM using alpha-casein as substrate after 30 mins in presence of [gamma-32P]-ATP by Cherenkov counting method
[20] = target: Casein kinase I isoform delta (Rattus norvegicus) (UniProt Q06486); test: Inhibition of rat recombinant CK1delta kinase domain assessed as residual activity at 10 uM using alpha-casein as substrate after 30 mins in presence of [gamma-32P]-ATP by Cherenkov counting method
[21] = target: T4, Casein kinase I isoform alpha (Bos taurus); test: Inhibition of bovine GST-tagged CK1alpha at 1 uM using alpha-casein as substrate after 30 mins in presence of [gamma-32P]-ATP by Cherenkov counting method
[22] = target: Casein kinase I isoform gamma-3 (Homo sapiens) (UniProt Q9Y6M4); test: Inhibition of human GST-tagged CK1gamma3 at 1 uM using alpha-casein as substrate after 30 mins in presence of [gamma-32P]-ATP by Cherenkov counting method
[23] = target: T3, Casein kinase I isoform delta; details: 125 uM
[24] = target: T6, Casein kinase I delta/epsilon (Homo sapiens) (UniProt P48730+P49674); test: Inhibition of CK1delta/epsilon in HEK293T cells assessed as suppression of Wnt/beta-catenin signaling up to 0.1 uM after 22 hrs in presence of Wnt3A-conditioned medium by Super-top flash reporter gene assay; assay type: cell-based
[25] = target: T6, Casein kinase I delta/epsilon (Homo sapiens); test: Inhibition of CK1delta/epsilon in HEK293T cells transfected with Wnt3A-expressing vector assessed as suppression of Wnt/beta-catenin signaling up to 0.1 uM after 22 hrs by Super-top flash reporter gene assay; assay type: cell-based
Rattus norvegicus = organism: Rattus norvegicus; test: Selectivity ratio of IC50 for full-length rat GST-tagged CK1delta to IC50 for rat GST-tagged CK1delta M82F mutant
[26] = target: Casein kinase I isoform delta (Rattus norvegicus) (UniProt Q06486); test: Competitive inhibition of full-length rat GST-tagged CK1delta at IC50 using alpha-casein as substrate after 30 mins in presence of 10 to 500 uM ATP and [gamma-32P]-ATP by Cherenkov counting method

Casein kinase I isoform epsilon, sequence (P49674 whole entry, canonical isoform): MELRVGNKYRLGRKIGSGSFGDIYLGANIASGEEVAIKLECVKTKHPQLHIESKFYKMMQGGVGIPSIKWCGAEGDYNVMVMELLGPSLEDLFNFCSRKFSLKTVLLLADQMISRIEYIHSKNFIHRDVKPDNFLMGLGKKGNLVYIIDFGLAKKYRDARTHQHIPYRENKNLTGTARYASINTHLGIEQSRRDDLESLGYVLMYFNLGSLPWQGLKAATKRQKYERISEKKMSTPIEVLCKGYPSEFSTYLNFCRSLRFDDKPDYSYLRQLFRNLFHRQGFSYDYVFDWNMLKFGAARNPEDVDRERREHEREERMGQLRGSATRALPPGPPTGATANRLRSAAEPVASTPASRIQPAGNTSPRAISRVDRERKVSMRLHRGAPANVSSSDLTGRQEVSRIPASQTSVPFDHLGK
Casein kinase I isoform delta (Rattus norvegicus, UniProt Q06486, M82F), sequence (Q06486 whole entry M82F, canonical isoform): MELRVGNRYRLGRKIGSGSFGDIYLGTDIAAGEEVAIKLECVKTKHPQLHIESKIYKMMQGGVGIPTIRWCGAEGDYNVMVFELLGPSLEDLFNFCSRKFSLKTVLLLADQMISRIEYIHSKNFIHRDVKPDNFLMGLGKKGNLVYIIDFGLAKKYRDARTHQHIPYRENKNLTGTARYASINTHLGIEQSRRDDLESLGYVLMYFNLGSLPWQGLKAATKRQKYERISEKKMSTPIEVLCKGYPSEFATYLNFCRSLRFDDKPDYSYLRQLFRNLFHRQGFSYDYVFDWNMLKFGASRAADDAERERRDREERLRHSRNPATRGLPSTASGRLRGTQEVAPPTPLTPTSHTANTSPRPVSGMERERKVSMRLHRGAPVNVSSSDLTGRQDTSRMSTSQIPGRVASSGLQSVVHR
Casein kinase I isoform gamma-3 (Homo sapiens), sequence (Q9Y6M4 whole entry, looked up, the tested form may be a part, canonical isoform): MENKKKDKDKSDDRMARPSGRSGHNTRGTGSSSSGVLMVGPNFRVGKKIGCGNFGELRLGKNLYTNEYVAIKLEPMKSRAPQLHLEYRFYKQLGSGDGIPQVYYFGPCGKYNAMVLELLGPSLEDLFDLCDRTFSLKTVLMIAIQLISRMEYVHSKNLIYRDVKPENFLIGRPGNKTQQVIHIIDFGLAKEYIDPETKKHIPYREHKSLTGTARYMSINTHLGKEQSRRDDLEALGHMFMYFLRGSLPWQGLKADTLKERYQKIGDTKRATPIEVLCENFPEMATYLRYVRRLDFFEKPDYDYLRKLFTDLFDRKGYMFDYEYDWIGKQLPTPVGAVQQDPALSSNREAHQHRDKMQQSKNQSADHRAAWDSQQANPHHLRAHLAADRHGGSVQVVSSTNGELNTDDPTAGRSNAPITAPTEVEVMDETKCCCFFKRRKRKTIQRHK
Casein kinase I isoform delta (Rattus norvegicus), sequence (Q06486 whole entry, looked up, the tested form may be a part, canonical isoform): as the sequence (Q06486 whole entry M82F, canonical isoform) above, with F82M counted along it
T5 sequence (Q06486 whole entry, the tested form may be a part, canonical isoform): as the sequence (Q06486 whole entry M82F, canonical isoform) above, with F82M counted along it
T3 sequence (P48730 whole entry, looked up, the tested form may be a part, canonical isoform): as the sequence (Q06486 whole entry M82F, canonical isoform) above, with F82M, V381I counted along it
T6 sequence (P48730 whole entry, looked up): as the sequence (Q06486 whole entry M82F, canonical isoform) above, with F82M, V381I counted along it
T6 sequence (P49674 whole entry, looked up): as the sequence (P49674 whole entry, canonical isoform) above

Cc1cc(-c2ccc(CC(=O)Nc3ccc(-c4cccnc4)cc3)cc2)ccn1
IC50 [1]: < 1 nM
Imax [2]: 1.1%
inhibition (Homo sapiens): inactive
fold change (FC) (HEK-293T [3]): <= 1.3
fold change (FC) (HEK-293T [4]): <= 1.5

COc1cc(OC)c(/C=C2/C(=O)Nc3ccccc32)c(OC)c1
inhibition [5]: 40%

Cc1ccc2nc(NC(=O)CSc3nc4c(c(=O)n3-c3ccc(F)cc3)SCC4)sc2c1
inhibition [6]: Active
inhibition [7]: Active
inhibition [8]: inactive
inhibition [9]: Active
IC50 [10]: 550 nM
IC50 [11]: 1890 nM
IC50 [12]: 150 nM
IC50 [13]: > 10000 nM
Ratio IC50 [14]: 4 to 7
Ratio IC50 [15]: < 17
Ratio IC50 [16]: 4
EC50 [17]: > 10000 nM
EC50 (MIA PaCa-2): 5340 nM
EC50 (PANC-1): 4870 nM
EC50 [18]: 5070 nM
EC50 (HT-29): > 10000 nM
EC50 (HEK293): 3500 nM
EC50 (SW-620): 8620 nM
EC50 (CAPAN-1): > 10000 nM

COc1ccccc1-n1c(SCC(=O)Nc2nc3ccc(C)cc3s2)nc2c(c1=O)SCC2
Activity [19]: 25%
Activity [20]: 22%
IC50 [10]: 1020 nM
IC50 [11]: 1060 nM
IC50 [12]: 140 nM
IC50 [13]: 7070 nM
Ratio IC50 [14]: 4 to 7
Ratio IC50 [15]: < 17
EC50 [17]: 930 nM
EC50 (MIA PaCa-2): 230 nM
EC50 (PANC-1): 230 nM
EC50 [18]: 580 nM
EC50 (HT-29): 340 nM
EC50 (HEK293): 280 nM
EC50 (SW-620): 230 nM
EC50 (CAPAN-1): 230 nM

O=C(CSc1nc2c(c(=O)n1Cc1cccc(C(F)(F)F)c1)SCC2)Nc1nc2ccc(C(F)(F)F)cc2s1
IC50 [11]: 1030 nM
inhibition [21]: Active
inhibition [22]: Active

COc1cccc(Cn2c(SCC(=O)Nc3nc4ccc(C(F)(F)F)cc4s3)nc3c(c2=O)SCC3)c1OC
IC50 [10]: 230 nM
IC50 [11]: 760 nM
IC50 [12]: 210 nM
IC50 [13]: 1230 nM
inhibition [21]: Active
inhibition [22]: Active

O=C(CSc1nc2c(c(=O)n1Cc1ccccc1)SCC2)Nc1nc2ccc(C(F)(F)F)cc2s1
IC50 [10]: 520 nM
IC50 [11]: 1060 nM
IC50 [12]: 270 nM
IC50 [13]: 1410 nM
inhibition [21]: Active
inhibition [22]: Active

Nc1nccc(-c2c(-c3ccc(F)cc3)ncn2C2CCCCC2)n1
inhibition [23]: 40%

O=C(CSc1nc2c(c(=O)n1-c1ccccc1)SCC2)Nc1nc2ccc(C(F)(F)F)cc2s1
IC50 [10]: 400 nM
IC50 [11]: 660 nM
IC50 [12]: 210 nM
IC50 [13]: 4120 nM
inhibition [21]: Active
inhibition [22]: Active

O=C(CSc1nc2c(c(=O)n1Cc1ccc(OC(F)(F)F)cc1)SCC2)Nc1nc2ccc(C(F)(F)F)cc2s1
IC50 [11]: 700 nM
inhibition [21]: Active
inhibition [22]: Active

Fc1cccc(-n2cnc3c(NCc4nc5c(F)c(F)ccc5[nH]4)nc(N4CCOCC4)nc32)c1
inhibition [24]: Dose-dependent effect
inhibition [25]: Dose-dependent effect

Cc1ccc2nc(NC(=O)CSc3nc4c(c(=O)n3Cc3ccccc3)SCC4)sc2c1
inhibition [6]: Active
inhibition [7]: Active
inhibition [8]: inactive
inhibition [9]: Active
IC50 [10]: 420 nM
IC50 [11]: 1660 nM
IC50 [12]: 60 nM
IC50 [13]: 7340 nM
Ratio IC50 [14]: 4 to 7
Ratio IC50 [15]: < 17
Ratio IC50 [16]: 4
Ratio IC50 (Rattus norvegicus): 28
inhibition [26]: Active
EC50 [17]: > 10000 nM
EC50 (MIA PaCa-2): 5650 nM
EC50 (PANC-1): > 10000 nM
EC50 [18]: 3100 nM
EC50 (HT-29): > 10000 nM
EC50 (HEK293): > 10000 nM
EC50 (SW-620): 8520 nM
EC50 (CAPAN-1): > 10000 nM

O=C(CSc1nc2c(c(=O)n1Cc1ccc(C(F)(F)F)cc1)SCC2)Nc1nc2ccc(C(F)(F)F)cc2s1
IC50 [11]: 330 nM
inhibition [21]: Active
inhibition [22]: Active
